Source: ChEMBL document CHEMBL1201862, “PubChem BioAssay data set” (2004)
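Interpolation was linear, between the two tested concentrations surrounding the appropriate level; five concentrations were tested over 48 hours in 96-well plates. At the GI50, growth is halved.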 Active and inactive are the calls of the source. Cut-off read from the data, not from the text of the source: active = GI50 up to about 1.1 µM and inactive = higher.

What was measured:
Assay in all cases: NCI tumour cell line growth inhibition, 48 h
[1] = test system: MDA-MB-231
[2] = test system: UO-31
[3] = test system: SF-268
[4] = test system: M14
[5] = test system: HCT-116
[6] = test system: SK-MEL-5
[7] = test system: T47D
[8] = test system: SF-295
[9] = test system: SK-OV-3
[10] = test system: HT-29
[11] = test system: SW-620
[12] = test system: OVCAR-5
[13] = test system: HCC 2998
[14] = test system: RXF 393
[15] = test system: CCRF-CEM
[16] = test system: MDA-MB-435
[17] = test system: SNB-75
[18] = test system: KM12
[19] = test system: MDA-N
[20] = test system: Malme-3M
[21] = test system: ACHN
[22] = test system: HOP-92
[23] = test system: LOX IMVI
[24] = test system: MOLT-4
[25] = test system: HOP-62
[26] = test system: SK-MEL-2
[27] = test system: EKVX
[28] = test system: K562
[29] = test system: A498
[30] = test system: PC-3
[31] = test system: COLO 205
[32] = test system: U-251
[33] = test system: SF-539
[34] = test system: NCI-H23
[35] = test system: UACC-257
[36] = test system: RPMI-8226
[37] = test system: NCI/ADR-RES
[38] = test system: SN12C
[39] = test system: NCI-H460
[40] = test system: DU-145
[41] = test system: OVCAR-8
[42] = test system: TK-10
[43] = test system: 786-0
[44] = test system: SK-MEL-28
[45] = test system: NCI-H226
[46] = test system: HCT-15
[47] = test system: NCI-H522
[48] = test system: HL-60
[49] = test system: BT-549
[50] = test system: A549
[51] = test system: OVCAR-3
[52] = test system: SNB-19
[53] = test system: UACC-62
[54] = test system: CAKI-1
[55] = test system: OVCAR-4
[56] = test system: MCF7
[57] = test system: SR
[58] = test system: IGROV-1
[59] = test system: Hs-578T

Measured: GI50

COc1cc(N(C)C)ccc1C=c1c2ccccc2n2c1cc(-c1ccccc1)[n+]2C
inactive: [29] 1.65 µM | [37] 6.47 µM
0.979 µM: [46]
active: [1] 0.332 µM | [2] 0.493 µM | [3] 0.495 µM | [4] 0.411 µM | [5] 0.175 µM | [6] 0.637 µM | [7] 0.266 µM | [8] 0.336 µM | [9] 0.347 µM | [10] 0.325 µM | [11] 0.276 µM | [12] 0.566 µM | [13] 0.48 µM | [14] 0.345 µM | [15] 0.208 µM | [16] 0.358 µM | [17] 0.33 µM | [18] 0.17 µM | [19] 0.308 µM | [20] 1.02 µM | [21] 0.29 µM | [22] 0.319 µM | [23] 0.308 µM | [24] 0.222 µM | [25] 0.275 µM | [26] 0.469 µM | [27] 0.575 µM | [28] 0.177 µM | [30] 0.233 µM | [31] 0.151 µM | [32] 0.0581 µM | [33] 0.0813 µM | [34] 0.237 µM | [35] 0.319 µM | [36] 0.151 µM | [38] 0.296 µM | [39] 0.294 µM | [40] 0.323 µM | [41] 0.163 µM | [42] 0.575 µM | [43] 0.197 µM | [44] 0.802 µM | [45] 0.518 µM | [47] 0.169 µM | [48] 0.149 µM | [49] 0.34 µM | [50] 0.197 µM | [51] 0.392 µM | [52] 0.372 µM | [53] 0.582 µM | [54] 0.472 µM | [55] 0.453 µM | [56] 0.302 µM

COc1ccc(-c2ncn(C[Si](C)(C)C)c2-c2ccc(OC)cc2)cc1
4.51 µM: [46]
inactive: [1] 12.9 µM | [2] 2.28 µM | [3] 12.1 µM | [4] 3.59 µM | [5] 2.92 µM | [6] 2.54 µM | [8] 4.24 µM | [57] 6.19 µM | [9] 20 µM | [10] 2.84 µM | [11] 3.05 µM | [12] 5.02 µM | [58] 6.21 µM | [13] 3.17 µM | [14] 6.25 µM | [59] 12.5 µM | [16] 3.73 µM | [17] 13.1 µM | [18] 4.92 µM | [19] 3.1 µM | [20] 10.4 µM | [21] 7.55 µM | [22] 4.7 µM | [23] 4.89 µM | [25] 12.6 µM | [26] 7.08 µM | [27] 3.13 µM | [30] 4.63 µM | [31] 2.54 µM | [32] 6.9 µM | [33] 10.5 µM | [34] 3.87 µM | [35] 4.93 µM | [36] 1.69 µM | [37] 5.08 µM | [38] 11 µM | [39] 3.77 µM | [41] 7.06 µM | [42] 7.24 µM | [43] 5.15 µM | [44] 2.33 µM | [45] 4.8 µM | [47] 4.28 µM | [48] 1.72 µM | [49] 22.4 µM | [50] 4.31 µM | [52] 7.64 µM | [53] 3.2 µM | [54] 5.85 µM | [55] 7.82 µM | [56] 8.59 µM
active: [24] 0.863 µM | [28] 0.472 µM

O=C(CN1CCCCC1)Nc1ccc2c(c1)C1Oc3ccccc3CC1CO2 (stereo unspecified)
15.5 µM: [46]
inactive: [1] 17.3 µM | [2] 21.2 µM | [3] 34.2 µM | [4] 18.2 µM | [5] 16.2 µM | [6] 13.8 µM | [7] 16.4 µM | [8] 19.5 µM | [57] 23.2 µM | [9] 32.8 µM | [10] 14.5 µM | [11] 18.8 µM | [12] 18.7 µM | [58] 21.1 µM | [13] 19.1 µM | [15] 34.3 µM | [16] 18.7 µM | [18] 20.5 µM | [19] 19 µM | [20] 16.7 µM | [22] 18.3 µM | [23] 16.4 µM | [24] 31.5 µM | [25] 16.9 µM | [26] 20.2 µM | [27] 17.2 µM | [28] 58.9 µM | [29] 30.3 µM | [30] 17.7 µM | [31] 13.3 µM | [32] 18 µM | [33] 19.1 µM | [34] 24.9 µM | [35] 19.2 µM | [36] 28.8 µM | [37] 23.9 µM | [38] 28.4 µM | [40] 35.2 µM | [41] 39 µM | [42] 23.8 µM | [43] 20.7 µM | [45] 21 µM | [47] 17.9 µM | [48] 46.1 µM | [49] 19.9 µM | [50] 32.5 µM | [51] 27.8 µM | [53] 16.4 µM | [54] 35.9 µM | [56] 21.8 µM
